Measurements reported in patent US11241442B2, “Methods of use for TRP channel antagonist-based combination cancer therapies” (President and Fellows of Harvard College, priority 2017, dated 2022).
Each block holds one molecule with its values, some of them ahead of it.

Key:
[1] = system: MCF-10A acini; assay: [H2O2]i by Hyper-2 in MCF-10A 3D acini; type: cell-based
Protocol: (§1) For the measurement of [H2O2]i levels in MCF-10A acini and HCC1569 spheroids, cells were transduced with a lentiviral vector encoding Hyper-2 or Hyper-2 (C199S). The Hyper-2 fluorescence was measured at 37° C. in HEPES-buffered saline (HBS) containing the following (in mM): 150 NaCl, 6 KCl, 1.2 MgSO4, 2 CaCl2, 11.5 glucose, and 25 HEPES (pH adjusted to 7.4 with NaOH). Fluorescence images of the cells were acquired through the Eclipse Ti-E microscope (Nikon) with ORCA-R2 cooled CCD camera (Hamamatsu Photonics) and analyzed with Metafluor image acquisition software (Molecular Devices). The 488:405-nm ratio images were obtained on a pixel-by-pixel basis. 3D images are shown as one section from midstructure. For the measurement of [H2O2]i levels in MCF-10A cells cultured in suspension, cell clumps were dissociated with trypsin and stained with 10 μM peroxy green-1 for 30 min at 37° C. Cells were then subjected to flow cytometric analysis (FACSCalibur; BD Biosciences). ROS levels determined by flow cytometry are reported as mean fluorescence intensity expressed in arbitrary units. Hyper-2 ratio images are representative from two independent experiments and averaged Hyper-2 ratio represents mean±SD from the sum of two independent experiments.

[2] = system: TRPA1; assay: [Ca2+]i by fura-2 in TRPA1-expressing MCF-10A 3D acini; type: cell-based; details: inner ECM-deprived region of MCF-10A acini
Protocol: (§2) For the measurement of [Ca^2+]i levels in cells cultured in 2D or 3D (in Matrigel), cells were stained with 3.5 μM fura-2-AM (Life Technology) in the presence of 2.5 mM probenecid (Sigma) and 0.02% Pluronic F-127 (Sigma) for 45 min at 37° C. The fura-2 fluorescence was measured in HBS solution containing 1.25 mM probenecid at 37° C. Fluorescence images of the cells were acquired through the Eclipse Ti-E microscope with ORCA-R2 cooled CCD camera and analyzed with Metafluor. The 340:380-nm ratio images were obtained on a pixel-by-pixel basis and were converted to Ca^2+ concentrations by in vivo calibration using 5 μM ionomycin as described previously (Nishida et al., Biochem. Biophys. Res. Commun., 262:350-354, 1999). 3D images are shown as one section from midstructure. For the measurement of [Ca^2+]i levels in cells cultured in suspension, cell clumps were dissociated with trypsin and [Ca^2+]i levels were determined by using Fluo-4 NW Calcium Assay Kit (Molecular Probes). Cells were stained with Fluo-4 according to the manufacturer's instructions and subjected to flow cytometric analysis (FACSCalibur) using HBS as sheath fluid. [Ca^2+]i levels determined by flow cytometry are reported as mean fluorescence intensity expressed in arbitrary units. Time courses of [Ca^2+]i rises in 2D culture are representative of three independent experiments and averaged Δ[Ca^2+]i represents mean±SEM from the sum of three independent experiments. Fura-2 ratio images in 3D culture are representative of two independent experiments and averaged [Ca^2+]i in 3D culture represents mean±SEM from the sum of two independent experiments.

[3] = system: HCC1569 spheroids; assay: [H2O2]i by Hyper-2 in HCC1569 spheroids; type: cell-based; details: AP-18, 300 nM A-967079 or 5 mM NAC
Protocol: as §1

[4] = target: T1, TRPA1 (Homo sapiens, UniProt O75762); assay: [Ca2+]i by fura-2 in HCC1569 spheroids; type: cell-based; details: AP-18, 300 nM A-967079 or 5 mM NAC
T1 construct: endogenous in cells; host or cells: HCC1569 breast cancer cells (2D culture or 3D spheroids; shGFP or shTRPA1 transduced)
T1 sequence (O75762 whole entry): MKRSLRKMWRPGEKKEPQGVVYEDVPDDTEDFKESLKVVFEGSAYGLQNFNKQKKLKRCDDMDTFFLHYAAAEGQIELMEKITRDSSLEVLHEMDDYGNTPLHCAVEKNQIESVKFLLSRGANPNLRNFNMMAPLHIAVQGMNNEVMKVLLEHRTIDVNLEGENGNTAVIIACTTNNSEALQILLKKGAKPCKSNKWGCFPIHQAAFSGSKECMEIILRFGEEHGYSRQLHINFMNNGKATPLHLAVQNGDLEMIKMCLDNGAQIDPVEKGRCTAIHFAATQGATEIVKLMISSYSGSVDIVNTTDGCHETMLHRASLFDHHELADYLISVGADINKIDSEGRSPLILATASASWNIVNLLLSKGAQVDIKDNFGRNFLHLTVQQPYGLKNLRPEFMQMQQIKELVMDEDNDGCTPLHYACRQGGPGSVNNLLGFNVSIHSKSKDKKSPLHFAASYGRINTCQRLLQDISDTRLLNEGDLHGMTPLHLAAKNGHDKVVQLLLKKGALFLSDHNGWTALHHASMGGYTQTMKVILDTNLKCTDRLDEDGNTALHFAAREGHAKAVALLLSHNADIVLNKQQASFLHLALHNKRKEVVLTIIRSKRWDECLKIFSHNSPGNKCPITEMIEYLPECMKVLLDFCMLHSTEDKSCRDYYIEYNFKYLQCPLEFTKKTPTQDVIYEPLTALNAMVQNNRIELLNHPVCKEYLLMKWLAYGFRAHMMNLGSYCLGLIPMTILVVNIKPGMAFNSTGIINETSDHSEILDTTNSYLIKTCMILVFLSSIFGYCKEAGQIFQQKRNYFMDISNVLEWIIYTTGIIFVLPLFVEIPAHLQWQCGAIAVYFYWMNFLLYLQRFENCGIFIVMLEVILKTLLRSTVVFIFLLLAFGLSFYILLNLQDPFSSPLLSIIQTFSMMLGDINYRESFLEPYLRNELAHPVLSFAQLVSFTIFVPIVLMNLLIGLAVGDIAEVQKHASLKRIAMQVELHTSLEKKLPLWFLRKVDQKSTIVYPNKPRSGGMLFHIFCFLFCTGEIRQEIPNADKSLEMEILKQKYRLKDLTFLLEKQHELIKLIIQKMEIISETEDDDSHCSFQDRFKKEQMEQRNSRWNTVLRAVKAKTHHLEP
Protocol: as §2

[5] = system: HCC1569 cells; assay: Soft agar anchorage-independent growth of HCC1569 cells; type: cell-based
Protocol: (§3) Cells were added to the regular MCF-10A or HCC1569 growth media (±AP-18, A-967079, or Trolox) plus 0.4% low-melt agarose (Sigma) and layered onto a bed of growth media plus 0.5% low-melt agarose. Cells were fed every 4 days with growth media (±AP-18, A-967079, or Trolox) plus 0.4% low-melt agarose. At the indicated times, viable colonies were stained with iodonitrotetrazolium chloride (Sigma). Colony number and colony size were determined using ImageJ. Images shown are representative of at least three independent experiments.

[6] = target: T1, TRPA1; assay: Ca2+ responses to carboplatin in HCC1569 cells; type: cell-based; details: 10 μM AP-18 or 300 nM A-967079
Protocol: as §2

[7] = system: HCC1569 cells; assay: Live cell number and cell death under carboplatin in HCC1569 cells; type: cell-based; details: carboplatin 72 h
Protocol: For the measurements of live cell number and cell death under treatment with H2O2, diamide, or chemotherapies, cells were cultured on 96-well plates in the presence or absence of these drugs for indicated times and stained with 5 μM bisBenzimide H 33342 trihydrochloride (Hoechst; Sigma) and 5 μM propidium iodide (PI; Sigma) for 1 h at 37° C. Hoechst- and/or PI-positive cells were counted using a laser scanning cytometer, Acumen Cellista (TTPLabTech). Apoptotic cells induced by H2O2 treatment were measured by staining with Annexin V-Alexa Fluor® 488 conjugate (Life Technologies) and PI in Ca^2+-containing solution (10 mM HEPES pH 7.4, 140 mM NaCl; 2.5 mM CaCl2), followed by flow cytometric measurement of fluorescence using a FACSCalibur. Flow cytometry plots are representative of three independent experiments. For the counting of viable cells cultured in suspension, cell clumps were dissociated with trypsin and stained with trypan blue. Viable cells were counted using the Countless Automated Cell Counters (Thermo Fisher Scientific). For the measurement of percentage of dead cells cultured in suspension, cells were cultured on poly HEMA-coated 96-well plates and stained with 5 μM Hoechst and 5 μM PI for 1 h at 37° C. without enzymatic dissociation of cell clumps. Hoechst- and/or PI-positive areas were measured using Acumen Cellista. Apoptotic cells induced by detachment were measured by staining with 5 μM Hoechst and 5 μM of CellEvent™ Caspase-3/7 Green Detection Reagent (Thermo Fisher Scientific) for 1 h at 37° C. without enzymatic dissociation of cell clumps. Hoechst- and/or CellEvent™ Caspase-3/7 Green Detection Reagent-positive areas were measured using Acumen Cellista. For the cell cycle analysis, enzymatically dissociated cells were fixed with ice-cold 70% EtOH for at least 30 min at 4° C., washed three times with PBS at 4° C., resuspended in PBS, treated with 100 μg/ml RNase A (Sigma), and stained with 50 μg/ml PI. The stained samples were subjected to flow cytometric analysis (FACSCalibur).

[8] = system: EL-12-58 xenograft tumors; assay: EL-12-58 xenograft tumor growth in NRG mice; type: in vivo
[9] = in vivo; cited from earlier work
[10] = system: MCF-10A cells; assay: [H2O2]i by peroxy green-1 flow cytometry in ECM-detached MCF-10A cells; type: cell-based; details: 1 mM NAC; 24 h after plating in non-adherent plates
Protocol: as §1

[11] = target: T1, TRPA1; assay: [Ca2+]i by Fluo-4 flow cytometry in ECM-detached TRPA1-expressing MCF-10A cells; type: cell-based; details: 1 mM NAC; 24 h after plating in non-adherent plates
Protocol: as §2, with “Time courses of [Ca^2+]i rises in 2D culture are representative of three independent experiments and averaged Δ[Ca^2+]i represents mean±SEM from the sum of three independent experiments. Fura-2 ratio images in 3D culture are representative of two independent experiments and averaged [Ca^2+]i in 3D culture represents mean±SEM from the sum of two independent experiments.” left out

[12] = system: MCF-10A cells expressing HER2; assay: Soft agar colony formation of MCF-10A cells expressing HER2; type: cell-based
Protocol: as §3

[13] = system: HCC1569 cells; assay: HCC1569 xenograft tumor growth in NRG mice; type: in vivo
Protocol: All animal studies were performed according to protocols approved by the Institutional Animal Care and Use Committee, the Standing Committee on Animals at Harvard University. One million HCC1569 cells stably expressing either TRPA1 or GFP (control) shRNAs were injected into cleared mammary fatpads of 8-week-old female NOD-Rag1^null IL2rg^null (NRG) mice. Tumor volume (mm^3) was monitored by caliper measurements in two perpendicular dimensions (the formula: (d^2×D)/2, where d and D represent the shortest and longest diameters, respectively) at the indicated time points. After tumors reached 3 to 5 mm in diameter, animals were randomized into the following treatment arms: (i) 37.5 mg/kg carboplatin or (ii) its vehicle (H2O) administrated via intraperitoneal injection for HCC1569 cell-transplanted animals; (i) oral administration of 30.0 mg/kg AM-0902, (ii) intraperitoneal administration of 37.5 mg/kg carboplatin, (iii) oral administration of 30.0 mg/kg AM-0902 plus intraperitoneal administration of 37.5 mg/kg carboplatin, or (iv) oral administration of 1% Tween 80/2% HPMC/97% water/methanesulfonic acid pH 2.2 (vehicle for AM-0902) plus intraperitoneal administration of H2O (vehicle for carboplatin) for EL-12-58 cell-transplanted animals. Power calculations are based on the standard deviation and effect size from pilot experiments in HCC1569 cells. […]
Unstained breast cancer and normal breast tissue arrays were purchased from US Biomax (BR1504a for breast tumors, BN08111 for normal breast tissues). […] Tumor slides stained for TRPA1, blinded and were evaluated by light microscopy and scored by a veterinary pathologist. Images of tissue sections were captured at 4× magnification to create a merged image of the entire section and at 20× magnification for quantification of cleaved caspase-3-positive nuclei, using a Olympus VS120 Slide Scanner. […] Relative apoptosis was quantified by determining the percentage of cleaved caspase-3-positive cells from more than five random fields, per section, from each tumor in the group, and normalized to the shGFP-expressing tumors treated with vehicle. […]

[14] = Weight loss of EL-12-58 xenograft animals; type: in vivo, mice; details: mean±SD
Protocol: All animal studies were performed according to protocols approved by the Institutional Animal Care and Use Committee, the Standing Committee on Animals at Harvard University. One million HCC1569 cells stably expressing either TRPA1 or GFP (control) shRNAs were injected into cleared mammary fatpads of 8-week-old female NOD-Rag1^null IL2rg^null (NRG) mice. Tumor volume (mm^3) was monitored by caliper measurements in two perpendicular dimensions (the formula: (d^2×D)/2, where d and D represent the shortest and longest diameters, respectively) at the indicated time points. After tumors reached 3 to 5 mm in diameter, animals were randomized into the following treatment arms: (i) 37.5 mg/kg carboplatin or (ii) its vehicle (H2O) administrated via intraperitoneal injection for HCC1569 cell-transplanted animals; (i) oral administration of 30.0 mg/kg AM-0902, (ii) intraperitoneal administration of 37.5 mg/kg carboplatin, (iii) oral administration of 30.0 mg/kg AM-0902 plus intraperitoneal administration of 37.5 mg/kg carboplatin, or (iv) oral administration of 1% Tween 80/2% HPMC/97% water/methanesulfonic acid pH 2.2 (vehicle for AM-0902) plus intraperitoneal administration of H2O (vehicle for carboplatin) for EL-12-58 cell-transplanted animals. Power calculations are based on the standard deviation and effect size from pilot experiments in HCC1569 cells. The sample size of seven mice per group provides greater than 95% power to detect a ˜80% difference in change in tumor volume between control and shTRPA1-treated cells with a two-sided type I error rate of 5%. Averaged tumor volume represents mean±SEM.

[15] = system: HCC1569 cells; details: cited from earlier work

elevated [Ca2+]i of inner cells of spheroids [4]: suppressed
[Ca2+]i rises upon carboplatin treatment [6]: significantly suppressed
oscillatory Ca2+ responses upon carboplatin treatment [6]: significantly suppressed
Structure (SMILES): CCC(=N\O)/C(C)=C/c1ccc(F)cc1 [A-967079]
increase in [H2O2]i (Hyper-2) in inner ECM-deprived cells [1]: unaffected
TRPA1- or E681K-induced [Ca2+]i rises [2]: abolished
increase in [H2O2]i (Hyper-2) in inner region of spheroids [3]: unaffected
anchorage-independent growth (number and average size of colonies) [5]: impaired
cell death in response to carboplatin treatment [7]: enhanced
live cell number in response to carboplatin treatment [7]: substantially suppressed

Structure (SMILES): Cn1cnc2ncn(Cc3nc(CCc4ccc(Cl)cc4)no3)c(=O)c21 [AM-0902]
tumor volume / tumor growth ([8]; AM-0902 30.0 mg/kg oral twice daily, carboplatin 37.5 mg/kg intraperitoneal): reduced
tumor mass ([8]; at end point, AM-0902 30.0 mg/kg oral twice daily, carboplatin 37.5 mg/kg intraperitoneal): reduced
live tumor cell area relative to total area (H&E) ([8]; compared with vehicle or single carboplatin treatment): reduced
plasma half-life (T1/2) [9]: 2.8 h

detachment-induced TRPA1-dependent increase in [Ca2+]i [11]: abolished
elevated [Ca2+]i of inner cells of spheroids [4]: suppressed
Structure (SMILES): CC(=O)N[C@@H](CS)C(=O)O [NAC, N-Acetyl-L-cysteine]
detachment-induced increase in [H2O2]i [10]: suppressed
increase in [H2O2]i (Hyper-2) in inner ECM-deprived cells [1]: abolished
TRPA1- or E681K-induced [Ca2+]i rises [2]: abolished
increase in [H2O2]i (Hyper-2) in inner region of spheroids [3]: abolished
TRPA1-mediated chemoresistance to carboplatin ([7]; 5 mM NAC): largely eliminated

Structure (SMILES): Cc1c(C)c2c(c(C)c1O)CCC(C)(C(=O)O)O2 (stereo not drawn) [Trolox]
colony number and size ([12]; Trolox treatment): strongly increased
TRPA1-induced increase in number and average size of colonies ([12]; wild-type or E681K TRPA1 expression): eliminated

Structure (SMILES): N.N.O=C([O-])C1(C(=O)[O-])CCC1.[Pt+2] [carboplatin]
tumor response to carboplatin ([13]; tumors expressing shGFP (control), 37.5 mg/kg carboplatin intraperitoneal twice a week): resistant
tumor growth after carboplatin treatment ([13]; tumors expressing shTRPA1, 37.5 mg/kg carboplatin intraperitoneal twice a week): significant reduction
apoptosis (cleaved caspase-3 staining of tumor sections) ([13]; tumors expressing shTRPA1, carboplatin treatment): increased
averaged weight loss ([14]; day 26): 3.94±1.02%
averaged weight loss ([14]; day 29): 7.01±2.80%
averaged weight loss ([14]; day 32): 10.3±3.36%

Structure (SMILES): N.N.[Cl][Pt][Cl] [cisplatin]
Resistance rank among 893 cancer cell lines [15]: 45
resistance z-score [15]: 1.54
